Assay results as given in US20040106626A1, “6-Membered unsaturated heterocyclic compounds useful for selective inhibition of the coagulation cascade” (Pharmacia Corporation, priority 2001, published 2004).

Legend:
Type in all cases: biochemical
[1] = target: T1, recombinant soluble tissue factor and recombinant human factor VIIa (TF-VIIa) (Homo sapiens, UniProt P08709); test: TF-VIIa assay (chromogenic substrate hydrolysis); details: reported only as less than or greater than 0.1 uM
T1 construct: conversion of coagulation factor VII to VIIa by factor Xa; purchased American Diagnostica, Greenwich CT; host or cells: soluble TF made in house in E. coli
T1 sequence (P08709 213-466 limits assumed): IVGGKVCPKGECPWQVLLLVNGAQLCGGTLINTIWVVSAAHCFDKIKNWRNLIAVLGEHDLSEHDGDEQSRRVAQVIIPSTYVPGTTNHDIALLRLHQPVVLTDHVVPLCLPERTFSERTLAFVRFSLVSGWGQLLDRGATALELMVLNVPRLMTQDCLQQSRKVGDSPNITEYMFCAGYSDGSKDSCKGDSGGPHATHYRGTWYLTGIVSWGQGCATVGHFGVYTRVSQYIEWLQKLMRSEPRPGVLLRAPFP
T1 sequence (P08709 61-212 limits assumed): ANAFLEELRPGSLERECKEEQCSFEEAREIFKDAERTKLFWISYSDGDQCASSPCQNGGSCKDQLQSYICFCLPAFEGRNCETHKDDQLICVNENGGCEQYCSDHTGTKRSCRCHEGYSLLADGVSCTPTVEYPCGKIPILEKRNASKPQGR
T1 sequence (P13726 33-251 partner limits assumed): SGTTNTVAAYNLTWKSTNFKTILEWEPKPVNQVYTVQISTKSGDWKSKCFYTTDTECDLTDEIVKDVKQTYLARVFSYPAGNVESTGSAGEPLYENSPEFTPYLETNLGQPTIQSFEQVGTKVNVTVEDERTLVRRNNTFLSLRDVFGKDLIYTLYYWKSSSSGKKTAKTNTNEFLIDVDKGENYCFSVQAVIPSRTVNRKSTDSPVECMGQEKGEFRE
Method: In this assay 100 nM recombinant soluble tissue factor and 2 nM recombinant human factor VIIa are added to a 96-well assay plate containing 0.4 mM of the substrate, N-methylsulfonyl-D-phe-gly-arg-p-nitroaniline and either inhibitor or buffer (5 mM CaCl2, 50 mM Tris-HCl, pH 8.0, 100 mM NaCl, 0.1% BSA). […] Percent inhibition of TF-VIIa activity is calculated from OD405 nm value from the experimental and control sample.
(§1) Recombinant human VIIa was purchased from American Diagnostica, Greenwich CT and chromogenic substrate N-methylsulfonyl-D-phe-gly-arg-p-nitroaniline was prepared by American Peptide Company, Inc., Sunnyvale, Calif. Factor Xa was obtained from Enzyme Research Laboratories, South Bend Ind., thrombin from Calbiochem, La Jolla, Calif., and trypsin and L-BAPNA from Sigma, St. Louis Mo.

Human factor Xa = target: T2, Human factor Xa (Homo sapiens, UniProt P00742); test: Xa assay (chromogenic substrate S-2765); details: reported only as less than or greater than 30 uM; read-out: Factor Xa (II) IC50
T2 construct: purchased Enzyme Research Laboratories, South Bend Ind
T2 sequence (P00742 235-488 limits assumed): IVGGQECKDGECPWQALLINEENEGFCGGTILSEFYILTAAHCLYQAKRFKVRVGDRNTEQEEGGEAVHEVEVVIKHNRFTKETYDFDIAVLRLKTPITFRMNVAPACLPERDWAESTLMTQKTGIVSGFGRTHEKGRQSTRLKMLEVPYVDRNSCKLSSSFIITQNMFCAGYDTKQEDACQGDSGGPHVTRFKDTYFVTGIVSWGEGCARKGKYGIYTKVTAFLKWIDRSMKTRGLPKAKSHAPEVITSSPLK
T2 sequence (P00742 41-179 limits assumed): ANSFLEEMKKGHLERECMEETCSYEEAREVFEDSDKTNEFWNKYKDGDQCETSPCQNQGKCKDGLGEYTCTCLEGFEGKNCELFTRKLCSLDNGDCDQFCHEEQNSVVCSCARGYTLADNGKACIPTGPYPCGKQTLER
Method: Human factor Xa (0.3 nM) and 0.15 mM -a-Benzyloxycarbonyl-D-arginyl-L-glycyl-L-arginine-p-nitroaniline-dihydrochloride (S-2765) are added to a 96-well assay plate containing either inhibitor or buffer (50 mM Tris-HCl, pH 8.0, 100 mM NaCl, 0.1% BSA). The reaction, in a final volume of 100 ul is measured immediately at 405 nm to determine background absorbance. The plate is incubated at room temperature for 60 min, at which time the rate of hydrolysis of the substrate is measured by monitoring the reaction at 405 nm for the release of p-nitroaniline. Percent inhibition of Xa activity is calculated from OD405 nm value from the experimental and control sample.
Recombinant soluble TF, consisting of amino acids 1-219 of the mature protein sequence was expressed in E. coli and purified using a Mono Q Sepharose FPLC. Recombinant human VIIa was purchased from American Diagnostica, Greenwich CT and chromogenic substrate N-methylsulfonyl-D-phe-gly-arg-p-nitroaniline was prepared by American Peptide Company, Inc., Sunnyvale, Calif. Factor Xa was obtained from Enzyme Research Laboratories, South Bend Ind., thrombin from Calbiochem, La Jolla, Calif., and trypsin and L-BAPNA from Sigma, St. Louis Mo. The chromogenic substrates S-2765 and S-2238 were purchased from Chromogenix, Sweden.

Human thrombin = target: T3, Human thrombin (Homo sapiens, UniProt P00734); test: Thrombin assay (chromogenic substrate); details: reported only as less than or greater than 30 uM; read-out: Thrombin (II) IC50
T3 construct: converts prothrombin (II) to thrombin (IIa); purchased Calbiochem, La Jolla, Calif
Method: Percent inhibition of thrombin activity is calculated from OD405 nm value from the experimental and control sample.
as §1

[2] = test system: Normal human pooled plasma; test: Prothrombin time (PT) clotting assay; details: concentration at which prothrombin time is prolonged by 2x normal, reported as less than or greater than 50 uM
Method: The prothrombin time (PT) assay is a clotting assay that is used to determine deficiencies of clotting factor activity in the extrinsic pathway. The assay measures time to clotting after the addition of thromboplastin (human tissue factor). Normal human pooled plasma is incubated with 100 uM compound or saline in a coagulation machine. Thromboplastin is added and time to clotting is measured. Compounds with greater than 3×normal PT of 11.0 seconds are further analyzed by concentration response to determine at what concentration the prothrombin time is prolonged by 2×normal.

Compound	IC50 [1]	IC50 (Human factor Xa)	IC50 (Human thrombin)	PT (Prothrombin time) 2xPT [2]
CC(C)Nc1ncc(-c2cc(N)cc(NC(=O)CC3CCCC3)c2)n(CC(=O)NCc2ccc(C(=N)N)cc2)c1=O.O=C(O)C(F)(F)F.O=C(O)C(F)(F)F [Example 141]	< 0.1 µM	> 30 µM	< 30 µM	<50.0 µM
CCNC(=O)c1cc(N)cc(-c2cnc(NC(C)C)c(=O)n2CC(=O)NCc2ccc(C(=N)N)cc2)c1 [Example 63]	< 0.1 µM	> 30 µM	> 30 µM	<50.0 µM
CCCc1ccc(C(=O)Nc2cc(N)cc(-c3cnc(NC(C)C)c(=O)n3CC(=O)NCc3ccc(C(=N)N)cc3)c2)cc1 [Example 108]	< 0.1 µM	> 30 µM	< 30 µM	<50.0 µM
CC[C@H](C)NC(=O)c1cc(N)cc(-c2cnc(N[C@@H](C)CC)c(=O)n2CC(=O)NCc2ccc(C(=N)N)cc2)c1.O=C(O)C(F)(F)F.O=C(O)C(F)(F)F [Example 191]	< 0.1 µM	> 30 µM	< 30 µM	<50.0 µM
CC(C)Nc1ncc(-c2cc(N)cc(C(=O)NCc3ccccc3)c2)n(CC(=O)NCc2ccc(C(=N)N)cc2)c1=O.O=C(O)C(F)(F)F.O=C(O)C(F)(F)F [Example 24]	< 0.1 µM	> 30 µM	> 30 µM	<50.0 µM
CC(C)Nc1ncc(-c2cc(N)cc(NCc3ccsc3)c2)n(CC(=O)NCc2ccc(C(=N)N)cc2)c1=O [Example 103]	< 0.1 µM	> 30 µM	> 30 µM	<50.0 µM
CC(C)Nc1ncc(-c2cc(N)cc(C(=O)OC(C)C)c2)n(CC(=O)NCc2ccc(C(=N)N)cc2)c1=O.O=C(O)C(F)(F)F [Example 124, Isopropyl 3-amino-5-[1-[2-({4-[amino(imino)methyl]benzyl}amino)-2-oxoethyl]-5-(isopropylamino)-6-oxo-1,6-dihydropyrazin-2-yl]benzoate]	< 0.1 µM	> 30 µM	> 30 µM	<50.0 µM
CC(C)Nc1ncc(-c2cc(N)cc(C(=O)NCCCc3ccccc3)c2)n(CC(=O)NCc2ccc(C(=N)N)cc2)c1=O [Example 62]	< 0.1 µM	> 30 µM	< 30 µM	<50.0 µM
CC(C)Nc1ncc(-c2cc(N)cc(OCC(C)(C)CN(C)C)c2)n(CC(=O)NCc2ccc(C(=N)N)cc2)c1=O.O=C(O)C(F)(F)F.O=C(O)C(F)(F)F [Example 217]	< 0.1 µM	> 30 µM	< 30 µM	<50.0 µM
CC[C@H](C)NC(=O)c1cc(N)cc(-c2cnc(NC(C)C)c(=O)n2CC(=O)NCc2c(O)cc(C(=N)N)cc2OC)c1 [Example 195]	< 0.1 µM	> 30 µM	> 30 µM	<50.0 µM
CCC(CC)COc1cc(N)cc(-c2cnc(NC(C)C)c(=O)n2CC(=O)NCc2ccc(C(=N)N)cc2)c1.O=C(O)C(F)(F)F.O=C(O)C(F)(F)F [Example 209]	< 0.1 µM	> 30 µM	> 30 µM	50 µM
COc1ccc(CNC(=O)c2cc(N)cc(-c3cnc(NC(C)C)c(=O)n3CC(=O)NCc3ccc(C(=N)N)cc3)c2)cc1.O=C(O)C(F)(F)F.O=C(O)C(F)(F)F [Example 174]	< 0.1 µM	> 30 µM	> 30 µM	<50.0 µM
CC(C)Nc1ncc(-c2cc(N)cc(NS(=O)(=O)c3ccccc3C(F)(F)F)c2)n(CC(=O)NCc2ccc(C(=N)N)cc2)c1=O [Example 89]	< 0.1 µM	> 30 µM	> 30 µM	<50.0 µM
CC(C)CCOc1cc(N)cc(-c2cnc(NC(C)C)c(=O)n2CC(=O)NCc2ccc(C(=N)N)cc2)c1.O=C(O)C(F)(F)F.O=C(O)C(F)(F)F [Example 214]	< 0.1 µM	> 30 µM	> 30 µM	<50.0 µM
CC[C@H](C)NC(=O)c1cc(N)cc(-c2cnc(NC(C)C)c(=O)n2CC(=O)NCc2ccc(C(=N)N)cc2)c1 [Example 71]			< 30 µM	<50.0 µM
CNc1ncc(-c2cc(N)cc(N)c2)n(CC(=O)NCc2ccc(C(=N)N)cc2)c1=O [Example 35]	< 0.1 µM	> 30 µM	> 30 µM	<50.0 µM
CC(C)Nc1ncc(-c2cc(N)cc(NC(=O)c3ccc(N(C)C)cc3)c2)n(CC(=O)NCc2ccc(C(=N)N)cc2)c1=O.O=C(O)C(F)(F)F.O=C(O)C(F)(F)F [Example 142]	< 0.1 µM	> 30 µM	> 30 µM	<50.0 µM
CC(C)Nc1ncc(-c2cc(N)cc(NS(=O)(=O)c3ccc(F)cc3F)c2)n(CC(=O)NCc2ccc(C(=N)N)cc2)c1=O [Example 94]	< 0.1 µM	> 30 µM	> 30 µM	<50.0 µM
CC(C)Nc1ncc(-c2cc(N)cc(C(=O)NCc3ccccc3)c2)n(CC(=O)NCc2ccc(C(=N)N)c(O)c2)c1=O.O=C(O)C(F)(F)F [Example 161, 3-amino-5-[1-[2-({4-[amino(imino)methyl]-3-hydroxybenzyl}amino)-2-oxoethyl]-5-(isopropylamino)-6-oxo-1,6-dihydropyrazin-2-yl]-N-benzylbenzamide]	< 0.1 µM	> 30 µM	> 30 µM	<50.0 µM
CCCCS(=O)(=O)c1cc(N)cc(-c2cnc(NC(C)C)c(=O)n2CC(=O)NCc2ccc(C(=N)N)cc2)c1.O=C(O)C(F)(F)F.O=C(O)C(F)(F)F [Example 230]	< 0.1 µM	> 30 µM	> 30 µM	<50.0 µM
CC[C@@H](C)NC(=O)c1cc(N)cc(-c2cnc(NC(C)C)c(=O)n2CC(=O)NCc2ccc(C(=N)N)c(O)c2)c1.O.O.O=C(O)C(F)(F)F [Example 254]	< 0.1 µM		> 30 µM	<50.0 µM
CC(C)Nc1ncc(-c2cc(N)cc(NC(=O)OC(C)(C)C)c2)n(CC(=O)NCc2ccc(C(=N)N)c(O)c2)c1=O [Example 78]	> 0.1 µM	> 30 µM	> 30 µM	<50.0 µM
CC(C)Nc1ncc(-c2cc(N)cc(C(=O)NCc3ccc(F)c(O)c3)c2)n(CC(=O)NCc2ccc(C(=N)N)cc2)c1=O.O=C(O)C(F)(F)F [Example 186]	< 0.1 µM	> 30 µM	> 30 µM	<50.0 µM
CC[C@H](C)NC(=O)c1cc(N)cc(-c2cnc(NC3CC3)c(=O)n2CC(=O)NCc2ccc(C(=N)N)cc2)c1.O=C(O)C(F)(F)F.O=C(O)C(F)(F)F [Example 184]			< 30 µM	<50.0 µM
CC(C)Nc1nc(Br)c(-c2cc(N)cc(C(=O)O)c2)n(CC(=O)NCc2ccc(C(=N)N)cc2)c1=O [Example 3, 3-Amino-5-[1-[2-({4-[amino(imino)methyl]benzyl}amino)-2-oxoethyl]-3-bromo-5-(isopropylamino)-6-oxo-1,6-dihydropyrazin-2-yl]benzoic Acid]	< 0.1 µM	> 30 µM		<50.0 µM
N=C(N)c1ccc(CNC(=O)Cn2c(-c3cc(N)cc(C(=O)OCc4ccccc4)c3)cnc(NC3CC3)c2=O)cc1.O=C(O)C(F)(F)F [Example 251]	< 0.1 µM		> 30 µM	<50.0 µM
CC(C)Nc1ncc(-c2cc(N)c3[nH]ccc3c2)n(CC(=O)NCc2ccc(C(=N)N)cc2)c1=O.O=C(O)C(F)(F)F.O=C(O)C(F)(F)F [Example 249]	< 0.1 µM		> 30 µM	<50.0 µM
